Experimental data as given in PubChem BioAssay AID330 (DTP/NCI, 2004).
Values joined by “and” are separate entries in the source; they are usually repeats but may differ in a detail not shown here. Equal entries are not always repeated. Toxic doses and inconclusive results are not listed. Peptide text beside a SMILES is read from it. * marks the point of attachment. Cbz = O=C(OCc1ccccc1)*

System: P388 leukemia ip, CD2F1 mice, survival T/C
Test: NCI In Vivo Anticancer Drug Screen. Data for tumor model P388 Leukemia (intraperitoneal) in CD2F1 (CDF1) mice
Details: endpoint: median survival time, higher = longer survival
Outline: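 Mice carrying the transplanted tumor received test compound or vehicle. Survival was recorded in each group, and the value is the treated-group measurement divided by that of the vehicle-treated control group.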

[1] = dose: 50.0 mg/kg/injection, schedule: Q01DX005 (ip), vehicle: saline with Tween-80
[2] = dose: 100.0 mg/kg/injection, schedule: Q01DX005 (ip), vehicle: saline with Tween-80
[3] = dose: 50.0 mg/kg/injection, schedule: Q01DX005 (ip), vehicle: Klucel (hydroxypropylcellulose) (HPC)
[4] = dose: 100.0 mg/kg/injection, schedule: Q01DX005 (ip), vehicle: Klucel (hydroxypropylcellulose) (HPC)
[5] = dose: 200.0 mg/kg/injection, schedule: Q01DX005 (ip), vehicle: Klucel (hydroxypropylcellulose) (HPC)
[6] = dose: 30.0 mg/kg/injection, schedule: Q01DX005 (ip), vehicle: Klucel (hydroxypropylcellulose) (HPC)
[7] = dose: 60.0 mg/kg/injection, schedule: Q01DX005 (ip), vehicle: Klucel (hydroxypropylcellulose) (HPC)
[8] = dose: 120.0 mg/kg/injection, schedule: Q01DX005 (ip), vehicle: Klucel (hydroxypropylcellulose) (HPC)
[9] = dose: 240.0 mg/kg/injection, schedule: Q01DX005 (ip), vehicle: Klucel (hydroxypropylcellulose) (HPC)
[10] = dose: 50.0 mg/kg/injection, schedule: Q01DX009 (ip), vehicle: saline with Tween-80
[11] = dose: 100.0 mg/kg/injection, schedule: Q01DX009 (ip), vehicle: saline with Tween-80
[12] = dose: 200.0 mg/kg/injection, schedule: Q01DX009 (ip), vehicle: saline with Tween-80
[13] = dose: 200.0 mg/kg/injection, schedule: Q01DX005 (ip), vehicle: saline with Tween-80
[14] = dose: 60.0 mg/kg/injection, schedule: Q01DX005 (ip), vehicle: saline with Tween-80
[15] = dose: 120.0 mg/kg/injection, schedule: Q01DX005 (ip), vehicle: saline with Tween-80
[16] = dose: 240.0 mg/kg/injection, schedule: Q01DX005 (ip), vehicle: saline with Tween-80
[17] = dose: 50.0 mg/kg/injection, schedule: Q01DX009 (ip), vehicle: saline
[18] = dose: 200.0 mg/kg/injection, schedule: Q01DX009 (ip), vehicle: saline

C=C1C[C@@]2(OC)OCC[C@H]3C(C)=CCC(C1=O)[C@]32C(=O)OC (some centres undefined)
T/C [1]: 105 % of control | T/C [2]: 105 % of control

CC(CN)OCc1ccccc1 (centres undefined)
T/C (dose: 12.5 mg/kg/injection, schedule: Q04DX003 (ip), vehicle: saline): 95 % of control | T/C (dose: 25.0 mg/kg/injection, schedule: Q04DX003 (ip), vehicle: saline): 100 % of control | T/C (dose: 50.0 mg/kg/injection, schedule: Q04DX003 (ip), vehicle: saline): 100 % of control

CC(=O)O[C@H]1CC[C@H]2[C@@H]3CCC(=O)CC(=O)CCC(=O)[C@H]3CC[C@]12C
T/C [3]: 108 % of control | T/C [4]: 109 % of control | T/C [5]: 105 % of control

NC1=NC(=O)C(N=O)C(=O)N1 (centres undefined)
T/C (dose: 100.0 mg/kg/injection, schedule: Q04DX002 (ip), vehicle: saline with Tween-80): 99 % of control | T/C (dose: 200.0 mg/kg/injection, schedule: Q04DX002 (ip), vehicle: saline with Tween-80): 107 % of control | T/C (dose: 400.0 mg/kg/injection, schedule: Q04DX002 (ip), vehicle: saline with Tween-80): 106 % of control

[Se]=P(N1CC1)(N1CC1)N1CC1
T/C (dose: 13.75 mg/kg/injection, schedule: Q01DX001 (ip), vehicle: Klucel (hydroxypropylcellulose) (HPC)): 119 % of control | T/C (dose: 27.5 mg/kg/injection, schedule: Q01DX001 (ip), vehicle: Klucel (hydroxypropylcellulose) (HPC)): 155 % of control

O=S(=O)(CS(=O)(=O)c1ccccc1Br)c1ccccc1Br
T/C [6]: 100 % of control | T/C [7]: 100 % of control | T/C [8]: 100 % of control | T/C [9]: 100 % of control

CCCCN(CCCC)CC(O)c1cc2c(Cl)cc(Cl)cc2c2cc(C(F)(F)F)ccc12 (centres undefined)
T/C [10]: 97 % of control | T/C [11]: 100 % of control | T/C [12]: 100 % of control

O=C(c1ccc(-c2ccccc2)cc1)C1CC1c1ccccc1 (centres undefined)
T/C (dose: 25.0 mg/kg/injection, schedule: Q01DX001 (ip), vehicle: saline sonified): 109 % of control | T/C (dose: 50.0 mg/kg/injection, schedule: Q01DX001 (ip), vehicle: saline sonified): 90 % of control | T/C (dose: 100.0 mg/kg/injection, schedule: Q01DX001 (ip), vehicle: saline sonified): 90 % of control

CCC(C)C(NC(=O)C1CCCN1C(=O)OCc1ccccc1)C(=O)O (stereo not drawn) (Cbz-Pro-Ile-OH; configuration not given here)
T/C [1]: 100 % of control | T/C [2]: 106 % of control | T/C [13]: 98 % of control

Oc1cc2c(cc1C(c1ccc3c(c1)OCO3)N1CCCCC1)OCO2 (centres undefined)
T/C [14]: 119 % of control | T/C [15]: 118 % of control | T/C [16]: 120 % of control

CCCCCCCCCCCCCCCCCC(=O)[O][Sn]([CH2]CCC)([CH2]CCC)[O]C(=O)CCCCCCCCCCCCCCCCC
T/C (dose: 2.66 mg/kg/injection, schedule: Q04DX003 (ip), vehicle: other): 109 % of control | T/C (dose: 4.0 mg/kg/injection, schedule: Q04DX003 (ip), vehicle: other): 106 % of control | T/C (dose: 6.0 mg/kg/injection, schedule: Q04DX003 (ip), vehicle: other): 109 % of control | T/C (dose: 9.0 mg/kg/injection, schedule: Q04DX003 (ip), vehicle: other): 110 % of control

COc1ccc(OC)c(NC=O)c1
T/C (dose: 12.5 mg/kg/injection, schedule: Q01DX009 (ip), vehicle: saline with Tween-80): 98 % of control and 86 % of control | T/C (dose: 25.0 mg/kg/injection, schedule: Q01DX009 (ip), vehicle: saline with Tween-80): 98 % of control and 93 % of control and 97 % of control | T/C [10]: 104 % of control and 97 % of control | T/C [11]: 99 % of control and 100 % of control and 97 % of control

O=C(NC(=O)c1ccc(F)c(Cl)c1)NC1CC1
T/C [7]: 100 % of control | T/C [8]: 102 % of control | T/C [9]: 93 % of control

COCCOCCOCCOCCOCCOCCOCCOCCOCCOCCOCCOCCOCCOCCn1cc(F)c(=O)[nH]c1=O
T/C (dose: 100.0 mg/kg/injection, schedule: Q04DX002 (ip), vehicle: saline): 100 % of control | T/C (dose: 200.0 mg/kg/injection, schedule: Q04DX002 (ip), vehicle: saline): 101 % of control | T/C (dose: 400.0 mg/kg/injection, schedule: Q04DX002 (ip), vehicle: saline): 104 % of control | T/C (dose: 800.0 mg/kg/injection, schedule: Q04DX002 (ip), vehicle: saline): 100 % of control

C/C=C1\CN2CCC34c5ccccc5N5C(C6C7CC8N(CCC89c8cccc(O)c8N(C(C)=O)C69)C/C7=C\C)OCC(C1CC23)C54 (centres undefined)
T/C (dose: 11.25 mg/kg/injection, schedule: Q01DX009 (ip), vehicle: saline with Tween-80): 106 % of control | T/C (dose: 22.5 mg/kg/injection, schedule: Q01DX009 (ip), vehicle: saline with Tween-80): 105 % of control | T/C (dose: 45.0 mg/kg/injection, schedule: Q01DX009 (ip), vehicle: saline with Tween-80): 106 % of control | T/C (dose: 90.0 mg/kg/injection, schedule: Q01DX009 (ip), vehicle: saline with Tween-80): 104 % of control

C1COCCOCCOCCOCCO1.[Br][Sn]([Br])([Br])[Br]
T/C (dose: 7.5 mg/kg/injection, schedule: Q01DX005 (ip), vehicle: Klucel (hydroxypropylcellulose) (HPC)): 96 % of control | T/C (dose: 15.0 mg/kg/injection, schedule: Q01DX005 (ip), vehicle: Klucel (hydroxypropylcellulose) (HPC)): 102 % of control | T/C [6]: 105 % of control

CNC(=O)OCc1c(COC(=O)NC)c(-c2ccc(-c3ccccc3)cc2)n(C)c1C
T/C (dose: 2.5 mg/kg/injection, schedule: Q01DX009 (ip), vehicle: distilled water + Tween-80): 154 % of control | T/C (dose: 5.0 mg/kg/injection, schedule: Q01DX009 (ip), vehicle: distilled water + Tween-80): 152 % of control | T/C (dose: 10.0 mg/kg/injection, schedule: Q01DX009 (ip), vehicle: distilled water + Tween-80): 151 % of control | T/C (dose: 15.0 mg/kg/injection, schedule: Q01DX009 (ip), vehicle: distilled water + Tween-80): 153 % of control | T/C (dose: 20.0 mg/kg/injection, schedule: Q01DX009 (ip), vehicle: distilled water + Tween-80): 94 % of control

CCC[CH2][Sn]([CH2]CCC)([O]S(=O)c1ccccc1)[O]S(=O)c1ccccc1 (centres undefined)
T/C (dose: 3.12 mg/kg/injection, schedule: Q01DX001 (ip), vehicle: saline with Tween-80): 103 % of control | T/C (dose: 6.25 mg/kg/injection, schedule: Q01DX001 (ip), vehicle: saline with Tween-80): 119 % of control

CCC(=O)NC(Cc1ccccc1F)C(=O)O (centres undefined)
T/C (dose: 12.5 mg/kg/injection, schedule: Q01DX009 (ip), vehicle: saline): 101 % of control | T/C (dose: 25.0 mg/kg/injection, schedule: Q01DX009 (ip), vehicle: saline): 88 % of control | T/C [17]: 91 % of control and 93 % of control | T/C [18]: 95 % of control

CCOc1ccc(Nc2ncnc3sc4c(c23)CCCC4)cc1
T/C [1]: 100 % of control | T/C [2]: 102 % of control | T/C [13]: 109 % of control

CCCCCCC(Cn1ccnc1)c1ccccc1Cl (centres undefined)
T/C (dose: 25.0 mg/kg/injection, schedule: Q04DX003 (ip), vehicle: saline with Tween-80): 100 % of control | T/C (dose: 50.0 mg/kg/injection, schedule: Q04DX003 (ip), vehicle: saline with Tween-80): 98 % of control | T/C (dose: 100.0 mg/kg/injection, schedule: Q04DX003 (ip), vehicle: saline with Tween-80): 106 % of control

O=C(Nc1cc(-c2ccccc2)[nH]n1)c1ccccc1F
T/C (dose: 30.0 mg/kg/injection, schedule: Q01DX005 (ip), vehicle: saline with Tween-80): 97 % of control | T/C [14]: 97 % of control | T/C [15]: 97 % of control | T/C [16]: 90 % of control

Nc1cccc(C(=O)Nc2ccc3c(O)c(N=Nc4ccccc4)c(S(=O)(=O)O)cc3c2)c1
T/C [3]: 103 % of control | T/C [4]: 107 % of control | T/C [5]: 103 % of control

Cc1oc(-c2ccccc2F)nc1C(N)=O
T/C [10]: 96 % of control | T/C [11]: 95 % of control | T/C [12]: 91 % of control

NNS(=O)(=O)c1cccc([N+](=O)[O-])c1
T/C (dose: 12.5 mg/kg/injection, schedule: Q01DX009 (ip), vehicle: other): 107 % of control | T/C (dose: 25.0 mg/kg/injection, schedule: Q01DX009 (ip), vehicle: other): 98 % of control | T/C (dose: 50.0 mg/kg/injection, schedule: Q01DX009 (ip), vehicle: other): 103 % of control

C/C=C/COc1ccccc1C=O
T/C [17]: 99 % of control | T/C (dose: 100.0 mg/kg/injection, schedule: Q01DX009 (ip), vehicle: saline): 106 % of control | T/C [18]: 100 % of control
